Measurements reported in ChEMBL document CHEMBL6127126, “Closing the Design-Make-Test-Analyze Loop: Interplay between Experiments and Predictions Drives PROTACs Bioavailability” (J Med Chem, 2024).

Assays:
[1] = Lipophilicity, logD of compound in octanol-water at pH 7.4 by reverse phase HPLC analysis; format: physicochemical
[2] = Oral bioavailability in C57 BL/6 or CD-1 mouse at 1 mg/kg measured upto 24 hrs by LC-MS/MS analysis; format: ADME, organism-based; settings: in vivo
[3] = Lipophilicity, logD of compound in octanol-water at pH 7.4 by shake-flask method; format: physicochemical

Row | logD ([1]; read-out: logD) | bioavailability [2] [%] | logD ([3]; read-out: logD) | logD [3] | logD [1] | Compound
1 | 4.5 | – | – | – | – | CC(C)(C)NC(=O)[C@@H]1C[C@@H]2CCCC[C@@H]2CN1C[C@@H](O)[C@H](Cc1ccccc1)NC(=O)[C@H](CC(N)=O)NC(=O)c1ccc2ccccc2n1
2 | 3.4 | 0.16 | – | 3.8 | – | Cc1ncsc1-c1ccc(CNC(=O)[C@@H]2C[C@@H](O)CN2C(=O)[C@@H](NC(=O)COCCOCCOCCNC(=O)C[C@@H]2N=C(c3ccc(Cl)cc3)c3c(sc(C)c3C)-n3c(C)nnc32)C(C)(C)C)cc1
3 | 5 | – | – | – | – | COC(=O)C1=C(C)NC(C)=C(C(=O)OCCN(C)Cc2ccccc2)C1c1cccc([N+](=O)[O-])c1 (stereo not given) [NICARDIPINE]
4 | – | – | – | – | 4.2 | COC(=O)N[C@H](C(=O)N[C@@H](Cc1ccccc1)[C@@H](O)CN(Cc1ccc(-c2ccccn2)cc1)NC(=O)[C@@H](NC(=O)OC)C(C)(C)C)C(C)(C)C [ATAZANAVIR]
5 | 5 | 57.6 | 3.7 | – | – | COc1cc(O[C@H]2C(C)(C)[C@H](NC(=O)c3ccc(N4CCC(CN5CCN(c6ccc(C(=O)N[C@H]7CCC(=O)NC7=O)c(F)c6)CC5)CC4)cc3)C2(C)C)ccc1C#N [LUXDEGALUTAMIDE]
6 | – | – | – | – | 5.2 | CCOC(=O)C1=C(C)NC(C)=C(C(=O)OC)C1c1cccc(Cl)c1Cl (stereo not given) [FELODIPINE]
7 | 4.2 | 2.7 | 3.1 | – | – | Cc1ncsc1-c1ccc(CNC(=O)[C@@H]2C[C@@H](O)CN2C(=O)[C@@H](NC(=O)C2(F)CC2)C(C)(C)C)c(OCCOc2ccc(CN3CCN(c4cc(-c5ccccc5O)nnc4N)CC3)cc2)c1
8 | 6.2 | 61.4 | 4.6 | – | – | CC1(C)[C@H](NC(=O)c2ccc(N3CCN(CC4CCN(c5ccc6c(c5)C(=O)N(C5CCC(=O)NC5=O)C6=O)CC4)CC3)cc2)C(C)(C)[C@H]1Oc1ccc(C#N)c(Cl)c1 (stereo not given in full)

Continued, compound first:

Row | Compound | logD ([1]; read-out: logD) | bioavailability [2] [%] | logD ([3]; read-out: logD) | logD [3] | logD [1]
9 | N#Cc1ccc(O[C@H]2CC[C@H](NC(=O)c3ccc(N4CCC(CN5CCN(c6cc7c(cc6F)C(=O)N(C6CCC(=O)NC6=O)C7=O)CC5)CC4)nn3)CC2)cc1Cl (stereo not given in full) [BAVDEGALUTAMIDE] | 5 | 64.6 | 4.8 | – | –
10 | Cc1ncsc1-c1ccc([C@H](C)NC(=O)[C@@H]2C[C@@H](O)CN2C(=O)[C@@H](NC(=O)CCCCCC(=O)N2CCN(CC[C@H](CSc3ccccc3)Nc3ccc(S(=O)(=O)NC(=O)c4ccc(N5CCN(CC6=C(c7ccc(Cl)cc7)CCC(C)(C)C6)CC5)cc4)cc3S(=O)(=O)C(F)(F)F)CC2)C(C)(C)C)cc1 [DT-2216] | 7.3 | 0.07 | 3.9 | – | –
11 | CC1(C)CCC(CN2CCN(c3ccc(C(=O)NS(=O)(=O)c4ccc(NCC5CCOCC5)c([N+](=O)[O-])c4)c(Oc4cnc5[nH]ccc5c4)c3)CC2)=C(c2ccc(Cl)cc2)C1 [VENETOCLAX] | 7.9 | – | – | – | –
12 | CN(C)CCC=C1c2ccccc2C=Cc2ccccc21 [CYCLOBENZAPRINE] | 3.1 | – | – | – | –
13 | O=C1CC[C@H](N2Cc3cc(N4CCN(CC5CCN(c6ccc([C@@H]7c8ccc(O)cc8CC[C@@H]7c7ccccc7)cc6)CC5)CC4)ccc3C2=O)C(=O)N1 [VEPDEGESTRANT] | – | 58.5 | 4.6 | – | 5.7
14 | C=CCc1ccccc1OCC(O)CNC(C)C (stereo not given) [ALPRENOLOL] | 1.5 | – | – | – | –
15 | Cn1c(=O)n(C2CCC(=O)NC2=O)c2cccc(C#CCOC3CCN(C[C@H]4CC[C@H](n5cc(NC(=O)c6cnn7ccc(N8C[C@H]9C[C@@H]8CO9)nc67)c(C(F)F)n5)CC4)CC3)c21 (stereo not given in full) [KT-474] | – | 23.7 | 3.5 | – | 2.4
16 | Cc1nc(CCC(=O)NCCCCC(=O)N[C@H](C(=O)N2C[C@H](O)C[C@H]2C(=O)NCc2ccc(-c3scnc3C)cc2)C(C)(C)C)ccc1-c1cnc(NCc2c(Cl)ccc3c2CCO3)n2cnnc12 | 2.5 | 0 | 3.8 | – | –
17 | CC(=O)CC(c1ccccc1)c1c(O)c2ccccc2oc1=O (stereo not given) [WARFARIN] | 0.78 | – | – | – | –
